In ChEMBL document CHEMBL1201862, “PubChem BioAssay data set” (2004):
Activity calls are given as the source filed them. For most assays here, no stated cut-off is given here; in the data, actives have a measured EC50 and inactives only a lower limit.

What was measured:
[1] = biological target: T1, Replicative DNA helicase DnaB (Mycobacterium tuberculosis, UniProt P9WMR3); experiment: DnaB intein splicing inhibitors, dose response, biochemical, cell-free fluorescence (AID 449749); format: functional
T1 sequence (P9WMR3 whole entry): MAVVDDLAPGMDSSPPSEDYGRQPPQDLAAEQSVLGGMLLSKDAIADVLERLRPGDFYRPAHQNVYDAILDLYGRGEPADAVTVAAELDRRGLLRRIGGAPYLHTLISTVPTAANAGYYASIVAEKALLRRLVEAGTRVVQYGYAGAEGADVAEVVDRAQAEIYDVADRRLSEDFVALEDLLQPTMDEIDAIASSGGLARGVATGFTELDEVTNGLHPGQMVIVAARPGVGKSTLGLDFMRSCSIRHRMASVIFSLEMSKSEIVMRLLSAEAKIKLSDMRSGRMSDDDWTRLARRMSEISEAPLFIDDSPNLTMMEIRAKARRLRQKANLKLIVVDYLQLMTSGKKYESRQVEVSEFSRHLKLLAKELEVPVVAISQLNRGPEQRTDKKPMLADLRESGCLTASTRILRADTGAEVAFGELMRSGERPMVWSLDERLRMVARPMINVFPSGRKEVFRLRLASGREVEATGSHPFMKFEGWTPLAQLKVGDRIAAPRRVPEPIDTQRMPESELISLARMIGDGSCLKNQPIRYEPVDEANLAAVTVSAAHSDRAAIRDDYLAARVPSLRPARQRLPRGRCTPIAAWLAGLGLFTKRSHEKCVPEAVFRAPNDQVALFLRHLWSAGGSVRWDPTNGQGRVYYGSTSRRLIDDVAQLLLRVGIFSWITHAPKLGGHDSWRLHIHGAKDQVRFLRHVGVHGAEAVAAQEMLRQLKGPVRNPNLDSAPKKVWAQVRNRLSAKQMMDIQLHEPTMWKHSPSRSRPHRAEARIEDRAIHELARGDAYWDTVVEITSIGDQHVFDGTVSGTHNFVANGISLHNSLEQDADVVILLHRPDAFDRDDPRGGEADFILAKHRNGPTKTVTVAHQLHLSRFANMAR

Protein RecA = biological target: T2, Protein RecA (Mycobacterium tuberculosis, UniProt P9WHJ3); experiment: Fluorescence Cell-Free Homogeneous Dose Retest to Identify Inhibitors of RecA-Intein Splicing Activity. [Related pubchem assays (depositor defined):AID2097, AID2223, AID489010, AID492950]; format: functional
T2 sequence (P9WHJ3 whole entry): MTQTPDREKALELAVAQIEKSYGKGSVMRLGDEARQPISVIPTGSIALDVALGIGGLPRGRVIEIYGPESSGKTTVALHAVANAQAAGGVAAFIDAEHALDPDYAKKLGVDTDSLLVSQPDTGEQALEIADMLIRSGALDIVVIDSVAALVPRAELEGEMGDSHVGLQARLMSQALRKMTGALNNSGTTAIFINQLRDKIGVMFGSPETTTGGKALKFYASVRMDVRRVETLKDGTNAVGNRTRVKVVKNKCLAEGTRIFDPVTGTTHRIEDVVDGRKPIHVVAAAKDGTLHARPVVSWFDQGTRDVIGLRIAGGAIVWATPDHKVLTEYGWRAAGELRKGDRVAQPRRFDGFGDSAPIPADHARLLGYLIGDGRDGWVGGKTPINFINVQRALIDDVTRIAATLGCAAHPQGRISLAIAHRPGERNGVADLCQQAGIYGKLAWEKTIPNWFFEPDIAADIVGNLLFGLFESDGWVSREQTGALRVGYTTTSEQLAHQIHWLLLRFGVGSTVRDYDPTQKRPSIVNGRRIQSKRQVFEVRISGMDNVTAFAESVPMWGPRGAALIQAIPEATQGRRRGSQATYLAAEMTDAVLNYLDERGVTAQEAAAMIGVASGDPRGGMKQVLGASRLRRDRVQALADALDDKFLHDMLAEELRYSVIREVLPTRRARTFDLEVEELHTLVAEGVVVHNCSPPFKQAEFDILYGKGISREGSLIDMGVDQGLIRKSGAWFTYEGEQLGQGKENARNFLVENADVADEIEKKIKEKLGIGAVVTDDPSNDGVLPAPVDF

[2] = Shn3 3'UTR reporter inhibitors, dose response, cell-based, Clone20 osteoblasts, firefly luciferase, cherry-picked (AID 624132); format: functional;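 further: firefly luciferase luminescence from reporter carrying the Shn3 3'UTR in osteoblasts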
[3] = P. falciparum Dd2 growth inhibitors, dose response, SYBR Green, cherry-picked samples (AID 1159567); format: functional, cell-based
[4] = biological target: T3, RNA-binding protein pos-1 (Caenorhabditis elegans, UniProt G5EF15); experiment: inhibitors of POS-1/mex-3 RNA binding, dose response, biochemical, fluorescence polarization (AID 1964);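 further: purified POS-1 fused to maltose binding protein made in E. coli; potency of compounds blocking POS-1 binding to fluorescent RNA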
T3 sequence (G5EF15 whole entry): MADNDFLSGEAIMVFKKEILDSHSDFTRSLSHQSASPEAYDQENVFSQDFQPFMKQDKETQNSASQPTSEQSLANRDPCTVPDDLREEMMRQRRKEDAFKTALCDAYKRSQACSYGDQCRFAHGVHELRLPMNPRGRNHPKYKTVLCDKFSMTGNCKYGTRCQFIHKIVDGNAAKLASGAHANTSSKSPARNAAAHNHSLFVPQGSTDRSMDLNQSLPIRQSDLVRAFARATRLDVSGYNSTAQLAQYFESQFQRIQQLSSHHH

[5] = biological target: T4, Zinc finger protein mex-5 (Caenorhabditis elegans, UniProt Q9XUB2); experiment: MEX-5/TCR-2 RNA interaction inhibitors, dose response, biochemical, C. elegans, fluorescence polarization (AID 1960)
T4 sequence (Q9XUB2 whole entry): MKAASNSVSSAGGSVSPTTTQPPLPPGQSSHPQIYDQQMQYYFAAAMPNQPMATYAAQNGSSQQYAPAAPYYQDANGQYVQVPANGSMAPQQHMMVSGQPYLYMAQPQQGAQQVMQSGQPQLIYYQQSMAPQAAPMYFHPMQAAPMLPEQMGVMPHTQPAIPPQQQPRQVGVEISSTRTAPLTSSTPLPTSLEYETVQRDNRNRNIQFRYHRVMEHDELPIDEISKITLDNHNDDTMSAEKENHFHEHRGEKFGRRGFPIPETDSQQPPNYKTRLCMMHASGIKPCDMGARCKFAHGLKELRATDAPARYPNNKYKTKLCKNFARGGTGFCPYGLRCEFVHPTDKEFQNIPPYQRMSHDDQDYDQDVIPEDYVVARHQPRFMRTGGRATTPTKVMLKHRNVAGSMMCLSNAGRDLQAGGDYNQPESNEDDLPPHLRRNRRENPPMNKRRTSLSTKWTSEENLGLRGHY

[6] = inhibitors of intracellular T. cruzi replication, confirmation, NIH3T3 host cells, beta-gal luminescence (AID 2044); format: functional, cell-based;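 further: intracellular parasites grown in NIH/3T3 mouse fibroblasts as host cells; luminescent beta-galactosidase reporter signal from transgenic T. cruzi replicating inside host cells; inhibitors lower the luminescence signal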
[7] = cytotoxicity toward NIH3T3 fibroblasts, dose response, counter-screen, cell-based, ATP luminescence, mouse fibroblasts (AID 2010); format: functional;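 further: cells exposed to compound for about 90 hours before reading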
BJ [8] = experiment: cytotoxicity toward BJ-TERT fibroblasts, dose response, cell-based, RAS-independent, luminescence (AID 1933); format: functional; conditions: Homo sapiens
BJ [9] = experiment: cells; format: functional, cell-based; conditions: Homo sapiens
BJ [10] = experiment: cytotoxicity toward BJ-TERT-LT-ST fibroblasts, dose response, cell-based, RAS-independent, luminescence (AID 1935); format: functional; conditions: Homo sapiens;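 further: BJ fibroblasts immortalized with TERT plus LT and ST oncogenes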
[11] = cytotoxicity toward DRD oncogenic fibroblasts, dose response, cell-based, non-viral oncogenic, luminescence (AID 1934); format: functional; conditions: Homo sapiens
[12] = inhibitors of firefly luciferase expression or activity, dose response, H4 neuroglioma cells, luminescence (AID 1990); format: functional, cell-based
[13] = Luminescence Cell-Based Dose Response HTS to Identify Inhibitors of 5'UTR Stem-Loop Driven Prion Protein mRNA Translation in H4 Neuroglioblastoma Cells. [Related pubchem assays: 1827 (Project Summary), 1813 (Primary HTS)]; format: functional
[14] = inhibitors of SNCA 5'UTR-driven reporter translation, confirmation, H4 neuroglioma cells, luminescence (AID 1988); format: functional, cell-based
INS1 = experiment: beta cell apoptosis inhibitors, cytokine rescue, dose response, luminescence, retest (AID 449756); format: functional, cell-based; conditions: Rattus norvegicus;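 further: cell death triggered by IL-1 beta plus TNF-alpha plus IFN-gamma mixture; protective hits raise ATP signal compared with cytokine alone wells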
[15] = biological target: Luciferin 4-monooxygenase (Photinus pyralis, UniProt P08659); experiment: firefly luciferase enzyme inhibitors, dose response, biochemical, luminescence (AID 1891)
[16] = Luminescence Cell-Based Dose Confirmation HTS to Identify Inhibitors of Platelet Dense Granule Release. [Related pubchem assays: 1663 (Primary HTS), 1678 (Summary of Project)]; format: functional

Sequence of Luciferin 4-monooxygenase (P08659 whole entry): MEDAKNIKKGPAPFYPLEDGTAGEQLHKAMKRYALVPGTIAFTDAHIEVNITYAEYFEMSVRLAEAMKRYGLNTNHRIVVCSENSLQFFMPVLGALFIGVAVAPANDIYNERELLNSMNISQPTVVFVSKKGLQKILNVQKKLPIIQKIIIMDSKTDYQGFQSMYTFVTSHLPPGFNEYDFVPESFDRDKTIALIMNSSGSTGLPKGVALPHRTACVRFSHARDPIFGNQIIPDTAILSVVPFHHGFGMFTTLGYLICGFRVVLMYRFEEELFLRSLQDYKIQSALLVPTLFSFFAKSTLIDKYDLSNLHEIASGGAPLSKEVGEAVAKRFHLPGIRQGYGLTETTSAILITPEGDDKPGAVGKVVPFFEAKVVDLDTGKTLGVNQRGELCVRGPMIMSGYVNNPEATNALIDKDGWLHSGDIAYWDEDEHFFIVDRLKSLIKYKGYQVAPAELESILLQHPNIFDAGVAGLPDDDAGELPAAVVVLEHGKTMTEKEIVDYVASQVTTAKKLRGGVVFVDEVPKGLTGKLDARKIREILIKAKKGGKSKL

CCCCS/C(=C(/C#N)C(N)=O)c1cc2c([nH]1)CCCC2
AC50 [1]: > 380 µM (inactive)
EC50 (Protein RecA): 15.6 µM (active)

CCOC(=O)Cn1c(S(=O)(=O)Cc2ccccc2Cl)nc(-c2ccccc2)c1-c1ccccc1
AC50 [2]: 9.29 µM (active)

CO[C@@H]1CN(C)C(=O)c2cc(NC(=O)Nc3cccc(Cl)c3)ccc2OC[C@H](C)NC[C@H]1C
AC50 [3]: 6.78 µM (active)

O=C1NC(=O)N(c2ccccc2)C(=O)/C1=C\NN1C(=O)c2cccc3cccc(c23)C1=O
EC50 [4]: > 300 µM (not active)
EC50 [5]: 72 µM (active)

NC(=O)c1sc2nnc(-c3ccccc3)c(-c3ccccc3)c2c1N
EC50 [4]: > 300 µM (not active)
EC50 [5]: > 300 µM (not active)

O=C(C[C@@H]1CC[C@@H]2[C@H](COC[C@@H](O)CN2S(=O)(=O)c2ccccc2)O1)NCc1ccc(-c2ccccc2)cc1
AC50 [3]: 6.32 µM (active)

Cc1ccc(N/C=C2/Sc3ccccc3NC2=O)cc1
EC50 [4]: > 300 µM (not active)
EC50 [5]: > 300 µM (inconclusive)
EC50 [6]: 0.806 µM (active)
EC50 [7]: > 30 µM (not active)

N=c1c(C(=O)NCC2CCCO2)cc2c(=O)n3ccccc3nc2n1Cc1ccccc1Cl (stereo not drawn)
EC50 [4]: 104 µM (active)
EC50 [5]: 195 µM (active)

Cc1nc2sc3c(c2c(=O)n1NC(=O)CCl)CCCC3
EC50 (BJ [8]): 30.8 µM (active)
EC50 (BJ [9]): > 150 µM (not active)
EC50 (BJ [10]): > 150 µM (inconclusive)
EC50 [11]: > 150 µM (not active)

CCOC(=O)Cc1n[nH]c2c1C(c1cc(OC)ccc1OC)C(C#N)=C(N)O2 (stereo not drawn)
AC50 [1]: 73.9 µM (active)
EC50 (Protein RecA): 13.3 µM (active)

O=C1CN(S(=O)(=O)c2ccccc2)C[C@@H]2[C@H](c3ccc(C#CCc4ccccc4)cc3)[C@@H](CO)N12
AC50 [3]: 4.23 µM (active)

COC(=O)CC1=NN(c2ccc(OC)cc2)C(=O)C1
AC50 [1]: 54.9 µM (active)
EC50 (Protein RecA): 13.1 µM (active)

Cc1nn(C)c(Oc2ccccc2)c1CCNC(=O)CCl
EC50 (BJ [8]): 28.9 µM (active)
EC50 (BJ [9]): > 150 µM (not active)
EC50 (BJ [10]): > 150 µM (not active)
EC50 [11]: > 150 µM (not active)

Cc1nn(-c2ccccc2)c2c1C(c1ccccc1)C(C#N)=C(N)O2 (stereo not drawn)
AC50 [1]: 16.8 µM (active)
EC50 (Protein RecA): 9.07 µM (active)

Cc1ccc(/C=N/NC(=O)c2nnn(-c3nonc3N)c2-c2cccs2)cc1
EC50 [4]: > 300 µM (not active)
EC50 [5]: > 300 µM (not active)

O=C(NCc1ccccc1)C1=C[C@@H](c2csc3ccccc23)C[C@@H](OCCCCO)O1
EC50 [12]: 11.2 µM (active)
EC50 (BJ [8]): 22.8 µM (inconclusive)
EC50 [13]: 10.5 µM (active)
EC50 [14]: 9.75 µM (active)
EC50 (BJ [9]): 35.8 µM (active)
EC50 (BJ [10]): > 150 µM (not active)
EC50 [11]: 28.4 µM (active)
AC50 (INS1): 1.43 µM (active)

O=[N+]([O-])c1c(O)nc(O)nc1/C=C/c1cccnc1
AC50 [1]: > 380 µM (inactive)
EC50 (Protein RecA): > 380 µM (inactive)

CSc1nnc(N2C(=O)C(O)=C(C(=O)c3ccco3)C2c2ccc(F)cc2)s1 (stereo not drawn)
EC50 [4]: > 150 µM (not active)
EC50 [5]: 82.8 µM (active)
EC50 [15]: > 112 µM (not active)
EC50 [16]: > 112 µM (not active)

COc1cc(CN2[C@@H]3CNC[C@H]2[C@@H]3c2ccc(-c3ccccc3)cc2)cc(OC)c1
AC50 [3]: 6.99 µM (active)

C[C@H]1CN([C@@H](C)CO)S(=O)(=O)c2ccc(C#Cc3ccccc3)cc2O[C@H]1CN(C)C(=O)C1CC1
AC50 [3]: 3.95 µM (active)

COCCCNC(=O)C(C#N)c1nc2ccccc2nc1N1CCCC1 (stereo not drawn)
EC50 [4]: 23.8 µM (active)
EC50 [5]: > 300 µM (inconclusive)

N#Cc1cc2c(nc1SCC(=O)Nc1sc3c(c1C#N)CCC3)CCC2
EC50 (BJ [8]): 98.7 µM (active)
EC50 (BJ [9]): > 150 µM (not active)
EC50 (BJ [10]): > 75 µM (not active)
EC50 [11]: 32.8 µM (active)

Cc1ccc(/C=C/C(=O)c2ccc(N3CCOCC3)cc2)s1
EC50 [4]: > 300 µM (not active)
EC50 [5]: > 300 µM (not active)

COc1ccc(C2C(C#N)=C(N)OC3=C2C(=O)CC(C)C3)c(OC)c1OC (stereo not drawn)
EC50 [4]: > 300 µM (not active)
EC50 [5]: > 300 µM (not active)
